In ChEMBL document CHEMBL1152165, “Discovery of 1-benzoyl-3-cyanopyrrolo[1,2-a]quinolines as a new series of apoptosis inducers using a cell- and caspase-based high-throughput screening assay. Part 1: Structure-activity relationships of the 1- and 3-positions” (Bioorg Med Chem Lett, 2008):
Activity calls are given as the source filed them. The rule behind the calls is not given here.

What was measured:
[1] = tested on: SNU-398; experiment: Induction of apoptosis in human SNU398 cells assessed as caspase activation after 24 hrs; type: functional, cell-based; conditions: SNU-398, 24 h
[2] = tested on: SNU-398; experiment: Growth inhibition of human SNU398 cells; type: functional
[3] = tested on: T47D; experiment: Induction of apoptosis in human T47D cells assessed as caspase activation after 24 hrs; type: functional, cell-based
[4] = tested on: T47D; experiment: Growth inhibition of human T47D cells; type: functional
[5] = tested on: HCT-116; experiment: Induction of apoptosis in human HCT116 cells assessed as caspase activation after 24 hrs; type: functional, cell-based; conditions: HCT-116, 24 h
[6] = tested on: HCT-116; experiment: Growth inhibition of human HCT116 cells; type: functional
[7] = Inhibition of tubulin polymerization
[8] = tested on: HCT-116; experiment: Cell cycle arrest in human HCT116 cells by accumulation at G2/M phase by flow cytometry; type: functional, cell-based
[9] = Inhibition of tubulin polymerization up to 50 uM
[10] = tested on: K562; experiment: Growth inhibition of human K562 cells; type: functional
[11] = tested on: ZR-75-1; experiment: Growth inhibition of human ZR-75-1 cells; type: functional
[12] = tested on: Raji; experiment: Growth inhibition of human Raji cells; type: functional
[13] = Growth inhibition of human NAMALWA cells; type: functional; conditions: NAMALVA
[14] = tested on: SK-BR-3; experiment: Growth inhibition of human SKBR3 cells; type: functional
[15] = tested on: DLD-1; experiment: Growth inhibition of human DLD1 cells; type: functional
[16] = Growth inhibition of human H1299 cells; type: functional; conditions: NCI-H1299
[17] = tested on: HT-29; experiment: Growth inhibition of human HT-29 cells; type: functional
[18] = tested on: BT-474; experiment: Growth inhibition of human BT474 cells; type: functional

| Structure (SMILES) | EC50 [1] | GI50 [2] | EC50 [3] | GI50 [4] | EC50 [5] | GI50 [6] | further results |
| --- | --- | --- | --- | --- | --- | --- | --- |
| Cc1ccccc1C(=O)c1cc(C#N)c2ccc3ccccc3n12 | 2700 nM | 730 nM | 140 nM | 87 nM | 2500 nM | 1600 nM | – |
| N#Cc1cc(C(=O)c2ccc([N+](=O)[O-])cc2)n2c1ccc1ccccc12 | > 10000 nM | – | 2800 nM | – | > 10000 nM | – | – |
| N#Cc1cc(C(=O)c2ccc(Cl)cc2)n2c1ccc1ccccc12 | > 10000 nM | – | 49 nM | – | > 10000 nM | – | – |
| CC(=O)c1cc(C(=O)c2ccc(C)cc2)n2c1ccc1ccccc12 | > 10000 nM | – | > 10000 nM | – | > 10000 nM | – | – |
| CCOC(=O)c1cc(C(=O)c2cccc(OC)c2)n2c1ccc1ccccc12 | > 10000 nM | – | > 10000 nM | – | > 10000 nM | – | – |
| Cc1ccc(C(=O)c2cc(C#N)c3ccc4ccccc4n23)cc1 | 2700 nM | – | 930 nM | – | 4200 nM | – | – |
| N#Cc1cc(C(=O)c2ccc(N3CCNCC3)cc2)n2c1ccc1ccccc12 | > 10000 nM | – | > 10000 nM | – | > 10000 nM | – | – |
| N#Cc1cc(C(=O)c2ccccc2)n2c1ccc1ccccc12 | 5200 nM | 2000 nM | 78 nM | 70 nM | 5500 nM | 5800 nM | Activity [9]: inactive; GI50 [10]: 1200 nM; GI50 [11]: 70 nM; GI50 [12]: 1200 nM; GI50 [13]: 1200 nM; GI50 [14]: 70 nM; GI50 [15]: 1200 nM; Activity [8]: Active; GI50 [16]: 1200 nM; GI50 [17]: 1200 nM; GI50 [18]: 70 nM |
| N#Cc1cc(C(=O)c2cccnc2)n2c1ccc1ccccc12 | 2600 nM | – | 690 nM | – | 3700 nM | – | – |

These reach a lower EC50 [1]. Values come first.

| EC50 [1] | GI50 [2] | EC50 [3] | GI50 [4] | EC50 [5] | GI50 [6] | Structure (SMILES) | further results |
| --- | --- | --- | --- | --- | --- | --- | --- |
| 1600 nM | – | 170 nM | – | 1700 nM | – | COc1cccc(C(=O)c2cc(C#N)c3ccc4ccccc4n23)c1 | – |
| 1600 nM | – | 40 nM | – | 1900 nM | – | N#Cc1cc(C(=O)c2ccccn2)n2c1ccc1ccccc12 | – |
| 880 nM | – | 36 nM | – | 1200 nM | – | N#Cc1cc(C(=O)c2ccc(F)cc2)n2c1ccc1ccccc12 | – |
| 510 nM | 140 nM | 300 nM | 75 nM | 580 nM | 250 nM | N#Cc1cc(C(=O)c2ccc(N3CCCC3)cc2)n2c1ccc1ccccc12 | – |
| 350 nM | – | 160 nM | – | 550 nM | – | N#Cc1cc(C(O)c2ccc(-n3cccn3)cc2)n2c1ccc1ccccc12 (stereo not drawn) | – |
| 300 nM | – | 210 nM | – | 320 nM | – | N#Cc1cc(C(O)c2ccc(N3CCCC3)cc2)n2c1ccc1ccccc12 (stereo not drawn) | – |
| 260 nM | – | 100 nM | – | 370 nM | – | CCN(CC)c1ccc(C(=O)c2cc(C#N)c3ccc4ccccc4n23)cc1 | – |
| 200 nM | 420 nM | 170 nM | 470 nM | 240 nM | 1200 nM | N#Cc1cc(C(=O)c2ccc(N)cc2)n2c1ccc1ccccc12 | – |
| 180 nM | 120 nM | 280 nM | 71 nM | 280 nM | 490 nM | COc1ccc(C(=O)c2cc(C#N)c3ccc4ccccc4n23)cc1 | – |
| 140 nM | – | 220 nM | – | 240 nM | – | COc1ccc(C(O)c2cc(C#N)c3ccc4ccccc4n23)cc1 (stereo not drawn) | – |
| 57 nM | 36 nM | 41 nM | 72 nM | 96 nM | 240 nM | N#Cc1cc(C(=O)c2ccc(-n3cccn3)cc2)n2c1ccc1ccccc12 | IC50 [7]: 1000 nM |
| 39 nM | 59 nM | 34 nM | 41 nM | 74 nM | 65 nM | N#Cc1cc(C(=O)c2ccc(-n3ccnc3)cc2)n2c1ccc1ccccc12 | IC50 [7]: 5000 nM; Activity [8]: Active |
